Experimental data reported in patent US20260191965A1 (priority 2022, published 2026).
Converted amounts (≈) assume the structure as drawn. Like-named read-outs stand apart in the source and are kept apart here.

Key:
[1] = test system: clinical isolates of Mycobacterium tuberculosis; assay: microbe, parasite or virus in culture; format: cell-based; details: for MIC: Mycobacterium tuberculosis
[2] = test system: Mycobacterium tuberculosis H37Rv (ATCC 27294); format: cell-based; details: for Log reduction in CFU: vs drug-free control
[3] = test system: M. tuberculosis Erdman pFCA LuxAB; details: for reduction compared to the vehicle group: conjugate 100, rifampicin 10, metronidazole 200 mg/kg; for Log reduction compared to untreated group / Log10 CFU counts in the lungs, Average: QD for 12 days; for Log reduction compared to untreated group / Log10 CFU counts in the lungs, Mouse A / Log10 CFU counts in the lungs, Mouse B / Log10 CFU counts in the lungs, Mouse C / Log10 CFU counts in the lungs, Mouse D / Log10 CFU counts in the lungs, Mouse E / Log10 CFU counts in the lungs, Mouse F / Log10 CFU counts in the lungs, Average: conjugate 100, linezolid 100, PA-824 50, rifampicin 10, metronidazole 200 mg/kg; for Log10 CFU counts in the lungs, Mouse A / Log10 CFU counts in the lungs, Mouse B / Log10 CFU counts in the lungs, Mouse C / Log10 CFU counts in the lungs, Mouse D / Log10 CFU counts in the lungs, Mouse E / Log10 CFU counts in the lungs, Mouse F / Log10 CFU counts in the lungs, Average: day 21; for Log10 CFU counts in the lungs, Mouse A / Log10 CFU counts in the lungs, Mouse B / Log10 CFU counts in the lungs, Mouse C / Log10 CFU counts in the lungs, Mouse D / Log10 CFU counts in the lungs, Mouse E / Log10 CFU counts in the lungs, Mouse F: QD for 12 days from day 7; for Log10 CFU counts in the lungs, Average: group average, 6 mice
[4] = 168 h, clinical isolate strain 1, air with 5% CO2, 7H9/10% OADC, 7 days
[5] = 168 h, clinical isolate strain 2, air with 5% CO2, 7H9/10% OADC, 7 days
[6] = 168 h, clinical isolate strain 3, air with 5% CO2, 7H9/10% OADC, 7 days
[7] = 168 h, clinical isolate strain 4, air with 5% CO2, 7H9/10% OADC, 7 days
[8] = 168 h, clinical isolate strain 5, air with 5% CO2, 7H9/10% OADC, 7 days
[9] = 168 h, clinical isolate strain 6, air with 5% CO2, 7H9/10% OADC, 7 days
[10] = 168 h, clinical isolate strain 7, air with 5% CO2, 7H9/10% OADC, 7 days
[11] = 168 h, clinical isolate strain 8, air with 5% CO2, 7H9/10% OADC, 7 days
[12] = 168 h, clinical isolate strain 9, air with 5% CO2, 7H9/10% OADC, 7 days
[13] = 168 h, clinical isolate strain 10, air with 5% CO2, 7H9/10% OADC, 7 days
[14] = 168 h, clinical isolate strain 11 (sensitive strain), air with 5% CO2, 7H9/10% OADC, 7 days
[15] = read-out: MIC values against sensitive tuberculosis strains, sensitive tuberculosis strains, air containing 5% CO2

| Compound | MIC [1, 4] [µg/mL] | MIC [1, 5] [µg/mL] | MIC [1, 6] [µg/mL] | MIC [1, 7] [µg/mL] | MIC [1, 8] [µg/mL] | MIC [1, 9] [µg/mL] | MIC [1, 10] [µg/mL] | MIC [1, 11] [µg/mL] | MIC [1, 12] [µg/mL] | MIC [1, 13] [µg/mL] | MIC [1, 14] [µg/mL] | CFU/mL ([2]; concentration 20 μg/mL) [CFU/mL] | Log reduction in CFU ([2]; concentration 20 μg/mL) | Log reduction compared to untreated group ([3]; […]) | Log10 CFU counts in the lungs, Mouse A [3] [Log10 CFU] | Log10 CFU counts in the lungs, Mouse B [3] [Log10 CFU] | Log10 CFU counts in the lungs, Mouse C [3] [Log10 CFU] | Log10 CFU counts in the lungs, Mouse D [3] [Log10 CFU] | Log10 CFU counts in the lungs, Mouse E [3] [Log10 CFU] | Log10 CFU counts in the lungs, Average [3] [Log10 CFU] | other results |
| --- | --- | --- | --- | --- | --- | --- | --- | --- | --- | --- | --- | --- | --- | --- | --- | --- | --- | --- | --- | --- | --- |
| CO[C@H]1/C=C/O[C@@]2(C)Oc3c(C)c(O)c4c(c3C2=O)C2=NC3(CCN(CCn5c([N+](=O)[O-])cnc5C)CC3)NC2=C(NC(=O)/C(C)=C\C=C\[C@H](C)[C@H](O)[C@@H](C)[C@@H](O)[C@@H](C)[C@H](OC(C)=O)[C@@H]1C)C4=O | 2 (≈ 2.12 µM) | 0.5 (≈ 0.53 µM) | 2 (≈ 2.12 µM) | 2 (≈ 2.12 µM) | 2 (≈ 2.12 µM) | 1 (≈ 1.06 µM) | 2 (≈ 2.12 µM) | 2 (≈ 2.12 µM) | 0.5 (≈ 0.53 µM) | 1 (≈ 1.06 µM) | 0.016 (≈ 0.0169 µM) | 2.50E+03 | 4.98 | 4.18 | 2.48 | 2.18 | 3.02 | 2.48 | 3.80 | 2.69 | MIC [1, 15]: 0.016 µg/mL (≈ 0.0169 µM); reduction of bacterial count of wild-type Mycobacterium Tuberculosis compared to the drug-free group ([2]; at both tested concentrations (20 μg/mL and 5 μg/mL)): > 4 Log10 CFU; CFU/mL ([2]; concentration 5 μg/mL): 9.75E+03 CFU/mL; Log reduction in CFU ([2]; concentration 5 μg/mL): 4.39; reduction compared to the pre-treatment ([3]; […], 100 mg/kg orally QD, 12 consecutive days): 0.69 log CFU; reduction compared to the vehicle group ([3]; […], 12 consecutive days): 4 log CFU; activity compared to vehicle, rifampicin, metronidazole, linezolid and PA-824 control groups ([3]; […], one-way ANOVA, 95% level of confidence): significantly superior; Log10 CFU counts in the lungs, Mouse F [3]: 2.18 Log10 CFU; drug-related tolerance issues ([3]; mice, after 12 consecutive days of administration, 100 mg/kg QD): no drug-related tolerance issues were observed |
| NNC(=O)c1ccncc1 [Isoniazid, isoniazid] | > 40 | 2.5 (≈ 18.2 µM) | 10 (≈ 72.9 µM) | > 40 | 5 (≈ 36.5 µM) | 0.313 (≈ 2.28 µM) | 5 (≈ 36.5 µM) | 2.5 (≈ 18.2 µM) | > 40 | > 40 | 0.039 (≈ 0.284 µM) | – | – | – | – | – | – | – | – | – | MIC [1, 15]: 0.039 µg/mL (≈ 0.284 µM); CFU/mL ([2]; concentration 10 μg/mL): 3.14E+08 CFU/mL; Log reduction in CFU ([2]; concentration 10 μg/mL): −0.12 |
| Cc1ncc([N+](=O)[O-])n1CCO [Metronidazole, metronidazole] | > 32 | > 32 | > 32 | > 32 | > 32 | > 32 | > 32 | > 32 | > 32 | > 32 | > 32 | 1.66E+08 | 0.16 | 0.02 | 6.95 | 6.95 | 6.15 | 6.60 | 7.11 | 6.85 | activity against the tested strains ([1]; all tested strains, air containing 5% CO2): no activity; CFU/mL ([2]; concentration 50 μg/mL): 1.02E+08 CFU/mL; Log reduction in CFU ([2]; concentration 50 μg/mL): 0.37; reduction compared to the vehicle group ([3]; […], 12 consecutive days): 0.09 log CFU; Log10 CFU counts in the lungs, Mouse F [3]: 7.31 Log10 CFU |
| O=[N+]([O-])c1cn2c(n1)OC[C@@H](OCc1ccc(OC(F)(F)F)cc1)C2 [PA-824] | – | – | – | – | – | – | – | – | – | – | – | – | – | 3.04 | 3.29 | 4.00 | 4.06 | 3.65 | 4.01 | 3.83 | Log10 CFU counts in the lungs, Mouse F [3]: 3.97 Log10 CFU |
| CO[C@H]1/C=C/O[C@@]2(C)Oc3c(C)c(O)c4c(c3C2=O)C2=NC3(CCN(CC(C)C)CC3)NC2=C(NC(=O)/C(C)=C\C=C\[C@H](C)[C@H](O)[C@@H](C)[C@@H](O)[C@@H](C)[C@H](OC(C)=O)[C@@H]1C)C4=O [Rifabutin, rifabutin] | – | – | – | – | – | – | – | – | – | – | – | 7.19E+06 | 1.52 | – | – | – | – | – | – | – | CFU/mL ([2]; concentration 5 μg/mL): 9.77E+07 CFU/mL; Log reduction in CFU ([2]; concentration 5 μg/mL): 0.39 |
| CO[C@H]1/C=C/O[C@@]2(C)Oc3c(C)c(O)c4c(O)c(c(/C=N/N5CCN(C)CC5)c(O)c4c3C2=O)NC(=O)/C(C)=C\C=C\[C@H](C)[C@H](O)[C@@H](C)[C@@H](O)[C@@H](C)[C@H](OC(C)=O)[C@@H]1C [Rifampicin, rifampicin] | > 40 | 5 (≈ 6.08 µM) | > 40 | > 40 | > 40 | > 40 | > 40 | > 40 | 20 (≈ 24.3 µM) | 40 (≈ 48.6 µM) | 0.039 (≈ 0.0474 µM) | 1.23E+07 | 1.29 | 0.58 | 6.29 | 6.55 | 6.66 | 6.24 | 5.52 | 6.29 | MIC [1, 15]: 0.039 µg/mL (≈ 0.0474 µM); CFU/mL ([2]; concentration 5 μg/mL): 2.19E+07 CFU/mL; Log reduction in CFU ([2]; concentration 5 μg/mL): 1.04; reduction compared to the vehicle group ([3]; […], 12 consecutive days): 0.65 log CFU; Log10 CFU counts in the lungs, Mouse F [3]: 6.46 Log10 CFU |
| CO[C@H]1/C=C/O[C@@]2(C)Oc3c(C)c(O)c4c(O)c(c(/C=N/N5CCN(C6CCCC6)CC5)c(O)c4c3C2=O)NC(=O)/C(C)=C\C=C\[C@H](C)[C@H](O)[C@@H](C)[C@@H](O)[C@@H](C)[C@H](OC(C)=O)[C@@H]1C [Rifapentine, rifapentine] | – | – | – | – | – | – | – | – | – | – | – | 1.91E+07 | 1.1 | – | – | – | – | – | – | – | CFU/mL ([2]; concentration 5 μg/mL): 1.80E+07 CFU/mL; Log reduction in CFU ([2]; concentration 5 μg/mL): 1.12 |
| CC(=O)NC[C@H]1CN(c2ccc(N3CCOCC3)c(F)c2)C(=O)O1 [linezolid] | – | – | – | – | – | – | – | – | – | – | – | – | – | 1.57 | 5.86 | 4.61 | 5.76 | 4.59 | 5.13 | 5.30 | – |
